pEC50: −log10 of the molar value.
Columns and labels:
[1] = tested on: human MC1R (hMC1R); experiment: Cyclic AMP assay in HEK293 cells stably expressing hMC1R; format: cell-based; details: wild type and variants
Protocol: (§2) The site‐specific integration of each MCR gene was carried out in accordance with the Jump‐In^TM TI^TM Gateway® Targeted Integration System user guide (www.lifetechnologies.com) except replacement of tetracycline‐induced CMV promoter into SV40 promoter in MCR expression vector as previously described.[15] This technology enables stable single copy integration at the same location in the genome, equalising expression levels. CHO‐K1 cells expressing human MC2R and accessory protein MRAP were prepared by EuroscreenFast (Gosselies, Belgium).
(§3) Hanks' balanced salt solution containing 1% bovine serum albumin and 10 mmol/l HEPES was prepared and used as an assay buffer. Cells were suspended in the assay buffer containing 0.5 mmol/l 3‐isobutyl‐1‐methylxanthine (Calbiochem) and plated into a microplate. Serially diluted test substances were then added and incubated for 30 min at 37°C. Concentrations of cAMP in the cells were quantified using the cAMP dynamic 2 kit (Cisbio Bioassays) by measuring fluorescence.

[2] = tested on: melanocytes in face; experiment: Chronic toxicity study, histopathology of melanocytes in face; format: in vivo; details: chronic toxicity study in non-rodent species; data not shown
[3] = tested on: C57BL/6J-Ay/+ mice (Ay/a mice); experiment: Coat colour darkening in Ay/a mice; format: in vivo, mouse; details: for Coat colour of all mice: 6 consecutive days
Protocol: (§1) Unless noted otherwise, 3‐week‐old male C57BL/6J‐A^y/+ mice (Ay/a mice) were purchased from Japan SLC, Inc. Mice were housed under specific pathogen‐free conditions, and all animal experiments were conducted according to the Guidelines for Animal Experimentation at our institute. On day 0, the coat of the lower back was shaved, and animals were allocated to experimental groups. […] Assessment of coat colour of the shaved area on day 6 was performed macroscopically in a blinded manner. The dorsal skins were dissected and fixed in a neutralised formalin then embedded in paraffin. Melanin production in the hair roots of the dorsal skin was histologically evaluated by Fontana‐Masson staining.

[4] = Tissue distribution study in rats; format: in vivo, rat; details: data not shown
[5] = target: T1, human MC2R (hMC2R) (Homo sapiens, UniProt Q01718); experiment: Cyclic AMP assay in CHO-K1 cells expressing human MC2R and MRAP; format: cell-based; details: data not shown, read-out: EC50 agonistic activity (cAMP)
T1 construct: host or cells: CHO-K1

[6] = Pharmacokinetic study, 4 weeks repeated oral dosing in cynomolgus monkeys; format: in vivo, cynomolgus monkey; details: for Cmax / Tmax / AUC(0-t): female, cynomolgus monkey, plasma; for AUC(0-t): read-out: AUC0–24 h
[7] = tested on: cynomolgus monkeys (Macaca fascicularis); experiment: Pigmentation on the facial skin of cynomolgus monkeys (colorimeter, ΔL*); format: in vivo, cynomolgus monkey
Protocol: This study was conducted in compliance with the ‘Act on Welfare and Management of Animals’ in Japan and the ‘Guidance for Animal Care and Use’ and in accordance with the protocol reviewed by the Institutional Animal Care and Use Committee of the test facility, which is fully accredited by AAALAC International. […] The measurement site (cheek) was the same site on the face for all animals. […] The ΔL* represents the differences of individual L* values between each time point and pre‐test.

[8] = target: T2, rat MC1R (Rattus norvegicus, UniProt B6ZGR5); experiment: Cyclic AMP assay in HEK293 cells stably expressing rat MC1R; format: cell-based; details: data not shown, read-out: EC50 agonistic activity (cAMP)
T2 construct: expressed in transfected cells; host or cells: HEK293 (Jump-In TI Gateway targeted integration, SV40 promoter)
T2 sequence (B6ZGR5 1-317): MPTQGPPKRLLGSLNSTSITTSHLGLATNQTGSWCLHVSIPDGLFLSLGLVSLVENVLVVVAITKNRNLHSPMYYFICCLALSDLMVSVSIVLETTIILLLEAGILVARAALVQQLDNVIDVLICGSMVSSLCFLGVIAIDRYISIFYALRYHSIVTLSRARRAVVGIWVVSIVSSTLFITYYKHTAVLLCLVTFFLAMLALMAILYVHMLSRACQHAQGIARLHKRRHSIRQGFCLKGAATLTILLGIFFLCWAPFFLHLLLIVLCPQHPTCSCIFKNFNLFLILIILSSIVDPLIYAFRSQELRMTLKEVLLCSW

[9] = tested on: Tyr, Trp1 and Dct genes; experiment: Expression of melanogenesis genes in pinnae of Ay/a mice (quantitative real-time PCR); format: in vivo, mouse
Protocol: as §1
Total RNA was extracted using the Qiagen RNeasy Mini Kit (Qiagen), and quantitative real‐time PCR for Tyr, Trp1 and Dct was performed using the One Step SYBR PrimeScript PLUS RT‐PCR Kit (Takara Bio). Hypoxanthine phosphoribosyltransferase 1 (Hprt) was used as an endogenous control for normalisation. The ΔCT method was used to determine the relative expression levels. All PCR primers were purchased from Takara Bio with following product codes, MA153806 (Tyr), MA129755 (Trp1), MA118342 (Dct) and MA031262 (Hprt).

[10] = tested on: B16F1 mouse melanoma cell line; experiment: Melanin production in B16F1 cell line; format: cell-based; details: B16-F1, 72 h, read-out: EC50 of melanin production (95% confidence interval)
Protocol: Dulbecco's modified Eagle medium without phenol red (Life Technologies), containing 10% foetal bovine serum (Gibco) and 100 U/ml of penicillin‐streptomycin (Gibco), was used as the assay medium. Cells (1.5 × 10^4) were seeded into a 96‐well culture plate. Serially diluted test substances were added to the plate and incubated at 37°C in a humidified 5% CO2 incubator for 3 days.

[11] = Pharmacokinetic study, single oral dose in Ay/a mice; format: in vivo, mouse; details: for Cmax: Ay/a, mouse, po; for Cmax / Tmax / AUC(0-t): plasma; for AUC(0-t): read-out: AUC0–8 h
[12] = target: T3, cynomolgus monkey MC1R (cmMC1R) (Macaca fascicularis, UniProt A3KF53); experiment: Cyclic AMP assay in HEK293 cells stably expressing cmMC1R; format: cell-based; details: cmMC1R on HEK293; geometric mean of three experiments; read-out: EC50 agonistic activity (cAMP)
T3 sequence (A3KF53 1-317): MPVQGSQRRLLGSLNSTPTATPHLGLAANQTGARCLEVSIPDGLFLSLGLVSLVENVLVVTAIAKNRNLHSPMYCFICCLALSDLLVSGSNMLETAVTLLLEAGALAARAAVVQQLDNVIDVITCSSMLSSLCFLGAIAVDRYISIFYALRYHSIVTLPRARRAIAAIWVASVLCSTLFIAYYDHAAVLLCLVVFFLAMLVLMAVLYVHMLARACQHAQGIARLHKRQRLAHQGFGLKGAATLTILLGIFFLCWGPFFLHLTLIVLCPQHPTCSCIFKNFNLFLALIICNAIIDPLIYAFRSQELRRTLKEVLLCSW
Protocol: as §2, §3

[13] = Ay/a mouse, male, 0.03 mg/kg oral, day 1
[14] = Ay/a mouse, male, 0.3 mg/kg oral, day 1

T1 sequence (Q01718 whole entry): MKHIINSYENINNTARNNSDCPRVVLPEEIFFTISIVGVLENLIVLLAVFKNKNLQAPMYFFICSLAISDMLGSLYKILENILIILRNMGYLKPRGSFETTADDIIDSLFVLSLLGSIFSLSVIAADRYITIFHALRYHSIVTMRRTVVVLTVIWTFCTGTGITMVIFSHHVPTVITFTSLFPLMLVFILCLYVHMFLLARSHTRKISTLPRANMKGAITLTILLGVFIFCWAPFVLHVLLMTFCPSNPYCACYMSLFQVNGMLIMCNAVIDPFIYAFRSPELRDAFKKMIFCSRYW
T1 sequence (Q8TCY5 whole entry partner): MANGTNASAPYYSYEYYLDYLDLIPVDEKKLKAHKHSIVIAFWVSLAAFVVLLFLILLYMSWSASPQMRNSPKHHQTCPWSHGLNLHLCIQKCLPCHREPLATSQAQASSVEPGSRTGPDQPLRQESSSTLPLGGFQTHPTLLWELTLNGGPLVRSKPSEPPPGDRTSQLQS

With COC[C@H]1CN(C(=O)[C@]2(F)CN(C3CCCC3)C[C@H]2c2ccc(OC)cc2)C[C@@H]1c1ccc(C(F)(F)F)cc1N1CCC(C(=O)O)CC1 [MT‐7117, dersimelagon] as the compound, how does the “Emax of cAMP production compared with αMSH” value [1] read?
The value was “same level as that of the endogenous agonist αMSH”.

What about the “Histopathological change for melanocytes in face” value [2] of the same compound?
Its value is “no histopathological change”.

What about the “Coat colour of all mice” value ([3]; 0.3 mg/kg orally) of the same compound?
The value was “black”.

What about the “Coat colour of all mice” value ([3]; 3 mg/kg orally) of the same compound?
Its value is “black”.

And the “Pigment in the hair root (Fontana-Masson staining of dorsal skin)” value ([3]; 3 mg/kg, day 6)?
Its value is “black”.

And the “Minimum effective dose for darkening of coat colour of mice” value ([3]; oral, Ay/a mice)?
Its value is 0.3 mg/kg.

And the “Dose that significantly induced coat colour darkening in mice” value ([3]; p.o.)?
Its value is no less than 0.3 mg/kg/day.

And the “Distribution into the brain” value [4]?
Its value is “less likely to be distributed into the brain”.

What about the pEC50 [5] of the same compound?
Its pEC50 is less than 5.00.

What about the Cmax ([6]; monkeys, repeated oral dosing 1 mg/kg, read-out: Cmax in molar units) of the same compound?
Its Cmax is 78 nM.

And the “Increase of plasma levels with dose” value ([6]; monkeys, 1, 3 and 10 mg/kg)?
Its value is “greater than a dose‐proportional increase”.

What about the Tmax ([6]; 1 mg/kg oral, day 28) of the same compound?
Its Tmax is 2.6 h.

And the AUC(0-t) ([6]; 1 mg/kg oral, day 28)?
Its AUC(0-t) is 428 ng·h/mL.

And the Cmax ([6]; 1 mg/kg oral, day 28, read-out: C max)?
The Cmax was 53 ng/mL.

And the Tmax ([6]; 3 mg/kg oral, day 28)?
The Tmax was 1 h.

What about the AUC(0-t) ([6]; 3 mg/kg oral, day 28) of the same compound?
The AUC(0-t) was 2510 ng·h/mL.

What about the Cmax ([6]; 3 mg/kg oral, day 28, read-out: C max) of the same compound?
Its Cmax is 401 ng/mL.

And the Tmax ([6]; 10 mg/kg oral, day 28)?
Its Tmax is 1.8 h.

What about the AUC(0-t) ([6]; 10 mg/kg oral, day 28) of the same compound?
Its AUC(0-t) is 14100 ng·h/mL.

What about the Cmax ([6]; 10 mg/kg oral, day 28, read-out: C max) of the same compound?
Its Cmax is 1510 ng/mL.

What about the “Time of dosing after which ΔL* decrease was statistically significant versus vehicle” value ([7]; 10 mg/kg/day oral) of the same compound?
The value was 3 weeks.

And the “Time after cessation of treatment at which pigmentation diminished” value ([7]; 30 mg/kg group)?
The value was 16 weeks.

What about the “Time of dosing after which ΔL* decrease was statistically significant versus vehicle” value ([7]; 30 mg/kg/day oral) of the same compound?
Its value is 1 week.

And the “Time after cessation of treatment at which pigmentation diminished” value ([7]; 1, 3 and 10 mg/kg groups)?
The value was 4 weeks.

What about the “Time of dosing after which ΔL* decrease was statistically significant versus vehicle” value ([7]; 1 and 3 mg/kg/day oral) of the same compound?
Its value is 4 weeks.

And the “Minimum effective dose for skin pigmentation of monkeys” value ([7]; oral, once daily)?
The value was 1 mg/kg.

What about the “Dose that induced significant skin pigmentation in monkeys” value ([7]; p.o.) of the same compound?
Its value is no less than 1 mg/kg/day.

What about the pEC50 [8] of the same compound?
The pEC50 was 9.60.

And the “Expression of Tyr, Trp1 and Dct genes in pinnae” value ([9]; 0.3 mg/kg single oral dose, 24 h)?
Its value is “tendency towards gene upregulation”.

What about the “Expression of Tyr, Trp1 and Dct genes in pinnae” value ([9]; 3 mg/kg single oral dose, 24, 48 and 72 h, relative to Hprt) of the same compound?
The value was “significantly upregulated”.

And the pEC50 [10]?
Its pEC50 is 10.89.

And the C max ([11]; Ay/a mouse, male, 0.3 mg/kg oral, day 1, 0.3 mg/kg)?
Its C max is 5.62 ng/mL.

What about the Cmax ([11]; male, 0.03 mg/kg, Ay/a mouse, male, 0.03 mg/kg oral, day 1, read-out: C max) of the same compound?
Its Cmax is 0.668 ng/mL.

What about the Cmax ([11]; male, 0.3 mg/kg, Ay/a mouse, male, 0.3 mg/kg oral, day 1, read-out: C max) of the same compound?
Its Cmax is 5.6 ng/mL.

What about the Cmax ([11]; male, 0.3 mg/kg, mice, single oral dose 0.3 mg/kg, read-out: Cmax in molar units) of the same compound?
Its Cmax is 8.3 nM.

What about the “Increase of plasma levels with dose” value ([11]; mice, 0.03 and 0.3 mg/kg) of the same compound?
The value was “dose‐proportional manner”.

What about the Tmax [11, 13] of the same compound?
Its Tmax is 0.5 h.

What about the AUC(0-t) [11, 13] of the same compound?
Its AUC(0-t) is 2.62 ng·h/mL.

And the Tmax [11, 14]?
The Tmax was 2 h.

And the AUC(0-t) [11, 14]?
Its AUC(0-t) is 31.8 ng·h/mL.

What about the pEC50 [12] of the same compound?
Its pEC50 is 8.41.
